Measured values taken from patent US20120184765A1, “Process for preparing alkyl phosphates” (LANXESS DEUTSCHLAND GMBH, priority 2011, published 2012).

Assay: Solubility of tetraalkyl bisphosphates in water (separating funnel test)
Format: physicochemical
Details: for water solubility (phase separation observed): 50.0 g tetraalkyl bisphosphate + 50.0 g fully demineralized water, shaken, left to stand 1 hour, residue of aqueous phase / weight of aqueous phase; for solubility / miscibility in water (in words): conclusion from the phase separation experiments; for phase separation in further experiments: different weight ratios of tetraalkyl bisphosphate and water
Protocol: A separating funnel was charged with 50.0 g of tetraalkyl bisphosphate and 50.0 g of fully demineralized water, and was shaken vigorously and then left to stand for 1 hour. If phase separation became apparent, the lower, aqueous phase was carefully separated off and weighed (mw). The aqueous phase was concentrated to constant weight under reduced pressure on a rotary evaporator, and the residue was likewise weighed (mR).

Molecule | water solubility (phase separation observed) | solubility / miscibility in water (in words) | phase separation in further experiments
CCOP(=O)(OCC)OCCOCCOP(=O)(OCC)OCC [Tetraethyldiethylene glycol bisphosphate, tetraethyldiethylene glycol bisphosphate] | no phase separation | fully water-soluble | no phase separation
tetramethyldiethylene glycol bisphosphate | no phase separation | fully water-soluble | no phase separation
